In US8034818B2, “Therapeutic uses of derivatives of piperidinyl- and piperazinyl-alkyl carbamates” (Sanofi-Aventis, priority 2004, dated 2011):
Where a name gives a salt, the structure may show the parent alone.

Experiments:
[1] = tested on: male OF1 mice; experiment: test of analgesia: abdominal tractions induced with PBQ (phenylbenzoquinone) i.p.; assay type: in vivo, mouse; conditions: PBQ 2 mg/kg i.p.
Protocol: The in vivo activity of the compounds of the invention was evaluated in a test of analgesia.
Thus, the intraperitoneal (i.p.) administration of PBQ (phenylbenzoquinone, 2 mg/kg in 0.9% sodium chloride solution containing 5% ethanol) to male OF1 mice weighing 25 to 30 g, causes abdominal tractions, on average 30 torsions or contractions during the period of 5 to 15 minutes after injection. The test compounds are administered orally or intraperitoneally as a 0.5% suspension in Tween 80, 60 minutes or 120 minutes before the administration of PBQ. Under these conditions, the most powerful compounds of the invention produce a 35% to 70% reduction in the number of tractions induced with PBQ, within a dose range of between 1 and 30 mg/kg.

SMILES | melting point | Reduction in the number of tractions (%) ([1]; (b) 3 mg/kg p.o. at 1 hour) | Reduction in the number of tractions (%) ([1]; (a) 1 mg/kg p.o. at 2 hours)
CNC(=O)COC(=O)NCCN1CCN(c2cccc3ccccc23)CC1 (as salt: hydrochloride) [Compound 38, 2-(Methylamino)-2-oxoethyl 2-[4-(1-naphthyl)-1-piperazinyl]ethylcarbamate hydrochloride] | 166 °C |  | 
CNC(=O)COC(=O)NCCC1CCN(c2cccc(C)n2)CC1 (as salt: hydrochloride) [Compound 47, 2-(Methylamino)-2-oxoethyl 2-[1-(6-methyl-2-pyridyl)-4-piperidyl]ethylcarbamate hydrochloride] | 95 to 100 °C |  | 
CNC(=O)COC(=O)NCC1CCN(c2nccc3ccccc23)CC1 (as salt: hydrochloride) [Compound 154, 2-(Methylamino)-2-oxoethyl [1-(1-isoquinolyl)-4-piperidyl]methylcarbamate hydrochloride] | 208 to 212 °C (dec.) |  | 
CNC(=O)COC(=O)NCCC1CCN(c2cncc3ccccc23)CC1 (as salt: hydrochloride) [Compound 172, 2-(Methylamino)-2-oxoethyl 2-[1-(4-isoquinolyl)-4-piperidyl]ethylcarbamate hydrochloride] | 205 to 210 °C |  | 
NC(=O)COC(=O)NCCC1CCN(c2cccc(C(F)(F)F)c2)CC1 [Compound 44, 2-Amino-2-oxoethyl 2-{1-[3-(trifluoromethyl)phenyl]-4-piperidyl}ethylcarbamate] | 140 to 142 °C |  | 
CNC(=O)COC(=O)NCCC1CCN(c2cccc(C)n2)CC1 [Compound 47, 2-(Methylamino)-2-oxoethyl 2-[1-(6-methyl-2-pyridyl)-4-piperidyl]ethylcarbamate hydrochloride] |  | −63% (b) | 
CNC(=O)COC(=O)NCCC1CCN(c2cccc(CC(C)C)n2)CC1 [Compound 49, 2-(Methylamino)-2-oxoethyl 2-[1-(6-isobutyl-2-pyridyl)-4-piperidyl]ethylcarbamate] | 97 to 99 °C |  | 
NC(=O)COC(=O)NCC1CCN(c2cccc(-c3ccccc3)n2)CC1 [Compound 58, 2-Amino-2-oxoethyl 2-[1-(6-phenyl-2-pyridyl)-4-piperidyl]methylcarbamate] | 131 to 132 °C |  | 
CNC(=O)COC(=O)NCCC1CCN(c2ccc3ccccc3n2)CC1 [Compound 126, 2-(Methylamino)-2-oxoethyl 2-[1-(2-quinolyl)-4-piperidyl]ethylcarbamate] | 125 to 128 °C | −43% (b) | 
NC(=O)COC(=O)NCCC1CCN(c2ccc3ccccc3n2)CC1 [Compound 127, 2-Amino-2-oxoethyl 2-[1-(2-quinolyl)-4-piperidyl]ethylcarbamate] | 135 to 137 °C |  | 
CNC(=O)COC(=O)NCCC1(F)CCN(c2ccc3ccccc3n2)CC1 [Compound 128, 2-(Methylamino)-2-oxoethyl 2-[4-fluoro-1-(2-quinolyl)-4-piperidyl]ethylcarbamate] | 147 to 149 °C |  | 
CNC(=O)COC(=O)NCCC1CCN(c2ccc3c(Cl)cccc3n2)CC1 [Compound 130, 2-(Methylamino)-2-oxoethyl 2-[1-(5-chloro-2-quinolyl)-4-piperidyl]ethylcarbamate] | 158 to 162 °C |  | 
NC(=O)COC(=O)NCCC1CCN(c2ccc3cc(Cl)ccc3n2)CC1 [Compound 137, 2-Amino-2-oxoethyl 2-[1-(6-chloro-2-quinolyl)-4-piperidyl]ethylcarbamate] | 189 to 191 °C |  | 
NC(=O)COC(=O)NCCC1CCN(c2nccc3cc(F)ccc23)CC1 [Compound 158, 2-Amino-2-oxoethyl 2-[1-(6-fluoro-1-isoquinolyl)-4-piperidyl]ethylcarbamate] | 135 to 139 °C |  | 
CNC(=O)COC(=O)NCCC1CCN(c2cc3ccccc3cn2)CC1 [Compound 166, 2-(Methylamino)-2-oxoethyl 2-[1-(3-isoquinolyl)-4-piperidyl]ethylcarbamate] | 156 to 158 °C |  | −62% (a)
